Assay results from US20230031406A1, “COMPOUNDS AND COMPOSITIONS FOR TREATING CONDITIONS ASSOCIATED WITH NLRP ACTIVITY” (Novartis AG, priority 2018, published 2023).
Like-named read-outs stand apart in the source and are kept apart here. Each block holds one compound with its values, some of them ahead of it.

Test system: PMA-differentiated THP-1 cells
Experiment: IL-1β production in PMA-differentiated THP-1 cells stimulated with gramicidin (hTHP-1 assay containing 2% fetal bovine serum; Procedures 1 and 2)
Format: cell-based, human
Settings: 2% fetal bovine serum
How it was run: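 IL-1β release from PMA-differentiated THP-1 macrophage-like cells was triggered by 5 μM gramicidin for 2 h after 1 h compound exposure, then measured by HTRF.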

[1] = Table B1, class symbols, read-out: Average IC50 of compounds in hTHP-1 assay: hTHP-1 IC50
[2] = Homo sapiens, THP-1, Table B2, class symbols, read-out: hTHP-1 IC50
[3] = Homo sapiens, THP-1, Table B3, hTHP-1 assay, class symbols, read-out: IC50
[4] = Homo sapiens, THP-1, Table B1, class symbols, read-out: Average IC50 of compounds in hTHP-1 assay: hTHP-1 IC50
[5] = Table B2, class symbols, read-out: hTHP-1 IC50

IC50 [1]: 40 to 200 nM
SMILES: CC(C)(O)c1ncc(S(N)(=O)=NC(=O)Nc2c3c(nc4c2CCC4(C)C)CCC3)s1 (single isomer, unassigned) [Compound 153b, (R) or (S)-N′-((3,3-dimethyl-1,2,3,5,6,7-hexahydro-dicyclopenta[b,e]pyridin-8-yl)carbamoyl)-2-(2-hydroxypropan-2-yl)thiazole-5-sulfonimidamide]

IC50 [1]: 1000 to 5000 nM
SMILES: CC1CCc2c1nc1c(c2NC(=O)N=S(N)(=O)c2ccn(C(C)C)n2)CCC1 (single isomer, unassigned) [Compound 129ba, (R,S) or (R,R)-1-isopropyl-N′-((3-methyl-1,2,3,5,6,7-hexa-hydrodicyclo-penta[b,e]pyridin-8-yl)carbamoyl)-1H-pyrazole-3-sulfonimidamide]

IC50 [2]: 5000 to 30000 nM
SMILES: CCC1CCc2c1nc1c(c2NC(=O)N=S(N)(=O)c2ccn(C(F)F)n2)CCC1 (single isomer, unassigned) [Compound 668b, (R, R) or (R, S) or (S, R) or (S, S)-1-(Difluoromethyl)-N′-((3-ethyl-1,2,3,5,6,7-hexahydrodicyclopenta [b,e]pyridin-8-yl)carbamoyl)-1H-pyrazole-3-sulfonimidamide]

IC50 [2]: 1000 to 5000 nM
SMILES: NS(=O)(=NC(=O)Nc1c2c(nc(C3CC3)c1C1CC1)CCC2)c1ccn(C(F)F)n1 (centres unmarked) [Compound 728]

IC50 [3]: 200 to 1000 nM
SMILES: Cc1nc2c(c(NC(=O)N=S(N)(=O)c3nn(C(F)F)cc3F)c1-c1ccccc1)CCC2 (centres unmarked) [Example 620, 1-(Difluoromethyl)-4-fluoro-N′-((2-methyl-3-phenyl-6,7-dihydro-5H-cyclopenta[b]pyridin-4-yl)carbamoyl)-1H-pyrazole-3-sulfonimidamide]

IC50 [2]: 200 to 1000 nM
SMILES: C[C@@H]1CCc2c1nc1c(c2NC(=O)N=S(N)(=O)c2sc(CN(C)C)cc2F)CCC1 (stereo partly drawn) [Compound 636c, 5-((Dimethylamino)methyl)-3-fluoro-N′-(((R)-3-methyl-1,2,3,5,6,7-hexahydrodicyclopenta[b,e]pyridin-8-yl)carbamoyl)thiophene-2-sulfonimidamide]

IC50 (Table B4, class symbols, read-out: hTHP-1 IC50): 5000 to 30000 nM
SMILES: Cc1c(C(F)(F)F)nc2c(c1NC(=O)N=S(N)(=O)c1nn(-c3ccccc3)cc1F)CCC2 (single isomer, unassigned) [Example 784, (S) or (R)-4-fluoro-N′-((3-methyl-2-(trifluoromethyl)-6,7-dihydro-5H-cyclopenta [b]pyridin-4-yl)carbamoyl)-1-phenyl-1H-pyrazole-3-sulfonimidamide]

IC50 [1]: 5000 to 30000 nM
SMILES: CC(C)(O)c1cc(S(N)(=O)=NC(=O)Nc2c3c(nc4c2CCC4)CCC3)nn1-c1ccccc1 (single isomer, unassigned) [Compound 159b, (S) or (R)-N′-((1,2,3,5,6,7-hexahydrodicyclo-penta[b,e]pyridin-8-yl)carbamoyl)-5-(2-hydroxypropan-2-yl)-1-phenyl-1H-pyrazole-3-sulfonimidamide]

IC50 [4]: 1000 to 5000 nM
SMILES: Cn1nc(S(N)(=O)=NC(=O)Nc2c3c(nc4c2CCC4)CCC3)cc1C(C)(C)O (single isomer, unassigned) [Compound 158a, (R) or (S)-N′-((1,2,3,5,6,7-hexahydrodicyclo-penta[b,e]pyridin-8-yl)carbamoyl)-5-(2-hydroxypropan-2-yl)-1-methyl-1H-pyrazole-3-sulfonimidamide]

IC50 [1]: 1000 to 5000 nM
SMILES: CC1CCc2c1nc1c(c2NC(=O)N=S(N)(=O)c2ncc(C(C)(C)O)s2)CCC1 (single isomer, unassigned) [Compound 140ab, (R,S) or (R,R)-5-(2-hydroxypropan-2-yl)-N′-((3-methyl-1,2,3,5,6,7-hexa-hydrodicyclo-penta[b,e]pyridin-8-yl)carbamoyl)thiazole-2-sulfonimidamide]

IC50 [2]: 1000 to 5000 nM
SMILES: CC(C)(O)c1cc(Br)c(S(N)(=O)=NC(=O)Nc2c3c(nc4c2CCC4)CCC3)s1 (centres unmarked) [Compound 690, 3-Bromo-N′-((1,2,3,5,6,7-hexahydrodicyclopenta[b,e]pyridin-8-yl)carbamoyl)-5-(2-hydroxypropan-2-yl)thiophene-2-sulfonimidamide]

IC50 [2]: 40 to 200 nM
SMILES: Cc1c(C(F)(F)F)nc2c(c1NC(=O)N=S(N)(=O)c1cc(C(C)(C)O)cs1)CCC2 (centres unmarked) [Compound 624, 4-(2-Hydroxypropan-2-yl)-N′-((3-methyl-2-(trifluoromethyl)-6,7-dihydro-5H-cyclopenta[b]pyridin-4-yl)carbamoyl)thiophene-2-sulfonimidamide]

IC50 (Homo sapiens, THP-1, Table B3, hTHP-1 assay, numeric values, read-out: IC50): > 30000 nM
SMILES: CCn1nc(S(N)(=O)=NC(=O)Nc2c3c(nc4c2CCC4(C)C)CCC3)cc1CO (single isomer, unassigned) [Example 725, (S) or (R)-N′-((3,3-dimethyl-1,2,3,5,6,7-hexahydrodicyclopenta[b,e]pyridin-8-yl)carbamoyl)-1-ethyl-5-(hydroxymethyl)-1H-pyrazole-3-sulfonimidamide]

IC50 [5]: 5000 to 30000 nM
SMILES: C[C@@H]1CCc2c1nc1c(c2NC(=O)N=S(N)(=O)c2ccn(C(C)(F)F)n2)CCC1 (single isomer, unassigned) [Compound 723a, (S) or (R)-1-(1,1-Difluoroethyl)-N′-(((R)-3-methyl-1,2,3,5,6,7-hexahydrodicyclopenta[b, e]pyridin-8-yl)carbamoyl)-1H-pyrazole-3-sulfonimidamide]

IC50 [5]: 40 to 200 nM
SMILES: Cc1c(C(C)C)nc2c(c1NC(=O)N=S(N)(=O)c1sc(C(C)(C)O)cc1F)CCC2 (single isomer, unassigned) [Compound 645a, (R) or (S)-3-Fluoro-5-(2-hydroxypropan-2-yl)-N′-((2-isopropyl-3-methyl-6,7-dihydro-5H-cyclopenta[b]pyridin-4-yl)carbamoyl) thiophene-2-sulfonimidamide]

IC50 (Homo sapiens, THP-1, Table B2, numeric bounds, read-out: hTHP-1 IC50): > 30000 nM
SMILES: CC(C)(O)c1cc(Br)c(S(N)(=O)=NC(=O)Nc2c3c(nc4c2CCC4)CCC3)s1 (single isomer, unassigned) [Compound 690a, (S) or (R)-3-Bromo-N′-((1,2,3,5,6,7-hexahydrodicyclopenta [b,e]pyridin-8-yl)carbamoyl)-5-(2-hydroxypropan-2-yl)thiophene-2-sulfonamidamide]

IC50 [4]: 200 to 1000 nM
SMILES: Cc1c(C2CC2)nc2c(c1NC(=O)N=S(N)(=O)c1cnc(C(C)(C)O)s1)CCC2 (centres unmarked) [Compound 124, N′-((2-cyclopropyl-3-methyl-6,7-dihydro-5H-cyclopenta[b]pyridin-4-yl)carbamoyl)-2-(2-hydroxypropan-2-yl)thiazole-5-sulfonimidamide]

IC50 [5]: 5000 to 30000 nM
SMILES: CCC1CCc2c1nc1c(c2NC(=O)N=S(N)(=O)c2cnc(C(C)(C)O)s2)CCC1 (centres unmarked) [Compound 662, N′-((3-ethyl-1,2,3,5,6,7-hexahydrodicyclopenta[b,e]pyridin-8-yl)carbamoyl)-2-(2-hydroxypropan-2-yl)thiazole-5-sulfonimidamide]

IC50 (Table B3, hTHP-1 assay, class symbols, read-out: IC50): 1000 to 5000 nM
SMILES: Cc1c(C(F)(F)F)nc2c(c1NC(=O)N=S(N)(=O)c1cnc(C(C)(C)O)s1)CCC2C (single isomer, unassigned) [Example 703, (R/S, S) or (R/S, R)-N′-((3,7-dimethyl-2-(trifluoromethyl)-6,7-dihydro-5H-cyclopenta[b]pyridin-4-yl)carbamoyl)-2-(2-hydroxypropan-2-yl)thiazole-5-sulfonimidamide]

IC50 [3]: 200 to 1000 nM
SMILES: Cc1nc2c(c(NC(=O)N=S(N)(=O)c3cc(C(C)(C)O)cs3)c1C(F)(F)F)CCC2 (centres unmarked) [Example 566, 4-(2-Hydroxypropan-2-yl)-N′-((2-methyl-3-(trifluoromethyl)-6,7-dihydro-5H-cyclopenta[b]pyridin-4-yl)carbamoyl)thiophene-2-sulfonimidamide]

IC50 [2]: 1000 to 5000 nM
SMILES: COC(C)(C)c1ncc(S(N)(=O)=NC(=O)Nc2c3c(nc4c2CCC4)CCC3)s1 (centres unmarked) [Compound 693, N′-((1,2,3,5,6,7-hexahydrodicyclopenta[b,e]pyridin-8-yl)carbamoyl)-2-(2-methoxypropan-2-yl)thiazole-5-sulfonimidamide]

IC50 [4]: 1000 to 5000 nM
SMILES: CC(C)(O)c1cc(S(N)(=O)=NC(=O)Nc2c3c(nc4c2CCC4)CCC3)nn1-c1ccccc1 (centres unmarked) [Compound 159, N-((1,2,3,5,6,7-hexahydrodicyclopenta[b,e]pyridin-8-yl)carbamoyl)-5-(2-hydroxypropan-2-yl)-1-phenyl-1H-pyrazole-3-sulfonimidamide]

IC50 [1]: 200 to 1000 nM
SMILES: CC1CCc2c1nc1c(c2NC(=O)N=S(N)(=O)c2cc(C(C)(C)O)cs2)CCC1C [Compound 131aab, (R,R,S) and (R,S,R)-N′-((3,5-dimethyl-1,2,3,5,6,7-hexa-hydrodicyclo-penta[b,e]pyridin-8-yl)carbamoyl)-4-(2-hydroxypropan-2-yl)thiophene-2-sulfonimidamide]

IC50 [1]: 1000 to 5000 nM
SMILES: CC(C)(O)c1cc(F)c(S(N)(=O)=NC(=O)Nc2c3c(nc4c2CCC4)CCC3)s1 (single isomer, unassigned) [Compound 105b, (S) or (R)-3-fluoro-N′-((1,2,3,5,6,7-hexahydro-dicyclopenta[b,e]pyridin-8-yl)carbamoyl)-5-(2-hydroxypropan-2-yl)thio-phene-2-sulfonimidamide]

IC50 [3]: 5000 to 30000 nM
SMILES: Cc1c(CC(F)(F)F)nc2c(c1NC(=O)N=S(N)(=O)c1nn(C(F)F)cc1F)CCC2 (centres unmarked) [Example 617, 1-(Difluoromethyl)-4-fluoro-N′-((3-methyl-2-(2,2,2-trifluoroethyl)-6,7-dihydro-5H-cyclopenta[b]pyridin-4-yl)carbamoyl)-1H-pyrazole-3-sulfonimidamide]

IC50 [3]: 40 to 200 nM
SMILES: CCn1cc(F)c(S(N)(=O)=NC(=O)Nc2c3c(nc4c2CCC42CC2)CCC3)n1 (centres unmarked) [Example 628, 1-Ethyl-4-fluoro-N′-((1′,5′,6′,7′-tetrahydro-2′H-spiro[cyclopropane-1,3′-dicyclopenta[b,e]pyridin]-8′-yl)carbamoyl)-1H-pyrazole-3-sulfonimidamide]
